In US10576062B2, “Carbamoyloxymethyl triazole cyclohexyl acids as LPA antagonists” (Bristol-Myers Squibb Company, priority 2016, dated 2020) one finds IC50 data, which are given here for 18 compounds.

The structures appear in SMILES notation. Read-outs that look alike come from different tables or passages of the source.

In this experiment the target is T1, human LPA1 (Homo sapiens, UniProt Q92633).
T1 construct: expressed in transfected cells; host or cells: Chinese hamster ovary (CHO) cells
The experiment can be described thus: LPA1 functional antagonist assay (LPA-induced calcium flux). Format: cell-based. The following applies: read-out: hLPA1 IC50. An outline of the steps:
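CHO cells overexpressing human LPA1, loaded with calcium dye 30 min at 37° C, were preincubated 20 min at room temperature with compound (0.08 nM–5 μM, 0.5% DMSO) in HBSS/20 mM HEPES/0.1% fatty acid-free BSA.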
(In general: Calcium flux is commonly read through the fluorescence of an indicator in the cells.)

Setting [1] is: CHO cells overexpressing human LPA1, inhibition of calcium flux induced by 10 nM LPA.

T1 sequence (Q92633 whole entry): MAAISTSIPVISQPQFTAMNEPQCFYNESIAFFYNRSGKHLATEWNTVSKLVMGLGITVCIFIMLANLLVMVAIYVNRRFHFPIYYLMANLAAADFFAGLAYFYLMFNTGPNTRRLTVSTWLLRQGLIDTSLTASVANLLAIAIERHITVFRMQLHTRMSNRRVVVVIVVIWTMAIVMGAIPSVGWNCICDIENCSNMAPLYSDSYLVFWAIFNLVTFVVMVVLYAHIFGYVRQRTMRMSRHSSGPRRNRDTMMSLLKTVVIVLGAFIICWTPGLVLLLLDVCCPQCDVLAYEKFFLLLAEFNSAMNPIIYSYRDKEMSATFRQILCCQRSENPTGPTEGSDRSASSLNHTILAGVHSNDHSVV

For the compound `Cc1nc(-c2nnn(C)c2COC(=O)N(C)C[C@H]2C[C@@H]2C)cnc1O[C@H]1CCC[C@H](C(=O)O)C1` [Example 236, (1S,3S)-3-((3-methyl-5-(1-methyl-5-(((methyl(((1S,2S)-2-methylcyclopropyl)methyl)carbamoyl)oxy)methyl)-1H-1,2,3-triazol-4-yl)pyrazin-2-yl)oxy)cyclohexane-1-carboxylic acid], under setting [1], the IC50 (as a rule, the concentration at which inhibition is half-maximal) is 46 nM.

In the case of `CN(C(=O)OCc1c(-c2ccc(O[C@H]3CCC[C@H](C(=O)O)C3)cn2)nnn1C)C1(C)CC1` [Example 79, (1S,3S)-3-((6-(1-methyl-5-(((methyl(1-methylcyclopropyl)carbamoyl)oxy)methyl)-1H-1,2,3-triazol-4-yl)pyridin-3-yl)oxy)cyclohexane-1-carboxylic acid], the IC50 amounted to 45 nM.

Consider `Cc1cc(-c2nnn(C)c2COC(=O)N(C)CCC(C)C)ncc1O[C@H]1CCC[C@H](C(=O)O)C1` [Example 42, (1S,3S)-3-((6-(5-(((isopentyl(methyl)carbamoyl)oxy)methyl)-1-methyl-1H-1,2,3-triazol-4-yl)-4-methylpyridin-3-yl)oxy)cyclohexane-1-carboxylic acid], for which the IC50 was found to be 3750 nM.

On to `CN(C(=O)OCc1c(-c2ccc(O[C@H]3CCC[C@H](C(=O)O)C3)cn2)nnn1C)C1CC2(CC2)C1` [Example 183, (1S,3S)-3-((6-(1-methyl-5-(((methyl(spiro[2.3]hexan-5-yl)carbamoyl)oxy)methyl)-1H-1,2,3-triazol-4-yl)pyridin-3-yl)oxy)cyclohexane-1-carboxylic acid], for which, where the note is “human LPA1”, the IC50 is 20 nM.

On to `CN(CC1CCC1)C(=O)OCc1c(-c2ccc(O[C@H]3CCC[C@H](C(=O)O)C3)c(C(F)(F)F)n2)nnn1C` [Example 269, (1S,3 S)-3-((6-(5-((((cyclobutylmethyl)(methyl)carbamoyl)oxy)methyl)-1-methyl-1H-1,2,3-triazol-4-yl)-2-(trifluoromethyl)pyridin-3-yl)oxy)cyclohexane-1-carboxylic Acid], for which, under setting [1], the IC50 came out at 10 nM.

Consider `CCCCN(C)C(=O)OCc1c(-c2ccc(O[C@H]3CCC[C@H](C(=O)O)C3)c(C(F)F)n2)nnn1C` [Example 278, (1S,3S)-3-((6-(5-(((butyl(methyl)carbamoyl)oxy)methyl)-1-methyl-1H-1,2,3-triazol-4-yl)-2-(difluoromethyl)pyridin-3-yl)oxy)cyclohexane-1-carboxylic acid], for which, under setting [1], the IC50 is 22 nM.

As to `Cc1nc(-c2nnn(C)c2COC(=O)N(C)C[C@@H]2C[C@H]2C)cnc1O[C@H]1CCC[C@H](C(=O)O)C1` [Example 235, (1S,3S)-3-((3-methyl-5-(1-methyl-5-(((methyl(((1R,2R)-2-methylcyclopropyl)methyl)carbamoyl)oxy)methyl)-1H-1,2,3-triazol-4-yl)pyrazin-2-yl)oxy)cyclohexane-1-carboxylic acid], under setting [1], the IC50 was found to be 70 nM.

For the compound `CN(CC1CC1(F)F)C(=O)OCc1c(-c2ccc(O[C@H]3CCC[C@H](C(=O)O)C3)cn2)nnn1C` (mixture of isomers) [Example 186, (1S,3S)-3-((6-(5-(((((2,2-difluorocyclopropyl)methyl)(methyl)carbamoyl)oxy)methyl)-1-methyl-1H-1,2,3-triazol-4-yl)pyridin-3-yl)oxy)cyclohexane-1-carboxylic acid], the IC50 (human LPA1) was 67 nM.

With `COCc1nc(-c2nnn(C)c2COC(=O)N(C)CC2CC2)ccc1O[C@H]1CCC[C@H](C(=O)O)C1` [Example 285, (1S,3S)-3-((6-(5-((((cyclopropylmethyl)(methyl)carbamoyl)oxy)methyl)-1-methyl-1H-1,2,3-triazol-4-yl)-2-(methoxymethyl)pyridin-3-yl)oxy)cyclohexane-1-carboxylic acid], the IC50 under setting [1] turned out to be 1010 nM.

For the compound `CCCCN(C)C(=O)OCc1c(-c2ccc(O[C@H]3CCC[C@H](C(=O)O)C3)c(C)c2)nnn1C` [Example 40, (1S,3S)-3-(4-(5-(((butyl(methyl)carbamoyl)oxy)methyl)-1-methyl-1H-1,2,3-triazol-4-yl)-2-methylphenoxy)cyclohexane-1-carboxylic acid], the concentration for half-maximal inhibition (IC50) was determined as 28 nM.

Regarding `CN(CC1CC1)C(=O)OCc1c(-c2cnc(O[C@H]3CCC[C@H](C(=O)O)C3)cn2)nnn1C` [Example 213, (1S,3S)-3-((5-(5-((((cyclopropylmethyl)(methyl)carbamoyl)oxy)methyl)-1-methyl-1H-1,2,3-triazol-4-yl)pyrazin-2-yl)oxy)cyclohexane-1-carboxylic acid], under setting [1], the IC50 was 1070 nM.

For `Cc1nc(-c2nnn(C)c2COC(=O)N2CCCC(C)(C)C2)ccc1O[C@H]1CCC[C@H](C(=O)O)C1` [Example 137, (1S,3S)-3-((6-(5-(((3,3-dimethylpiperidine-1-carbonyl)oxy)methyl)-1-methyl-1H-1,2,3-triazol-4-yl)-2-methylpyridin-3-yl)oxy)cyclohexane-1-carboxylic acid], the IC50 was found to be 292 nM.

Turning to `CCCCCN(C)C(=O)OCc1c(-c2ccc(O[C@H]3CCC[C@H](C(=O)O)C3)cc2)nnn1C` (racemic) [Example 58, (rac)-trans-3-(4-(1-methyl-5-(((methyl(pentyl)carbamoyl)oxy)methyl)-1H-1,2,3-triazol-4-yl)phenoxy)cyclohexane-1-carboxylic acid], the concentration for half-maximal inhibition (IC50) is 250 nM.

In the case of `CC(OC(=O)N(C)C1CCCC1)c1c(-c2ccc(O[C@H]3CCC[C@H](C(=O)O)C3)cc2)nnn1C` (stereo partly drawn) [Example 94, (1S,3S)-3-(4-(5-(1-((cyclopentyl(methyl)carbamoyl)oxy)ethyl)-1-methyl-1H-1,2,3-triazol-4-yl)phenoxy)cyclohexane-1-carboxylic acid], the IC50 came out at 241 nM.

Regarding `Cc1nc(-c2nnn(C)c2COC(=O)N(C)Cc2ccccc2)ccc1O[C@H]1CCC[C@H](C(=O)O)C1` [Example 30, (1S,3S)-3-((6-(5-(((benzyl(methyl)carbamoyl)oxy)methyl)-1-methyl-1H-1,2,3-triazol-4-yl)-2-methylpyridin-3-yl)oxy)cyclohexane-1-carboxylic acid], the IC50 is 16 nM.

For `CN(C(=O)OCc1c(-c2ccc(O[C@H]3CCC[C@H](C(=O)O)C3)cn2)nnn1C)C1CC(C)(C)C1` [Example 181, (1S,3S)-3-((6-(5-((((3,3-dimethylcyclobutyl)(methyl)carbamoyl)oxy)methyl)-1-methyl-1H-1,2,3-triazol-4-yl)pyridin-3-yl)oxy)cyclohexane-1-carboxylic acid], the IC50 (human LPA1) came to 101 nM.

In the case of `CCC1CCN(C(=O)OCc2c(-c3ccc(O[C@H]4CCC[C@H](C(=O)O)C4)c(C)n3)nnn2C)C1` (mixture of isomers) [Example 165, (1S,3S)-3-((6-(5-(((3-ethylpyrrolidine-1-carbonyl)oxy)methyl)-1-methyl-1H-1,2,3-triazol-4-yl)-2-methylpyridin-3-yl)oxy)cyclohexane-1-carboxylic acid], the half-maximal inhibitory concentration (IC50) (human LPA1) amounted to 102 nM.

Turning to `CN(Cc1ccccc1)C(=O)OCc1c(-c2ccc(O[C@H]3CCC[C@H](C(=O)O)C3)c(C(F)F)n2)nnn1C` [Example 282, (1S,3S)-3-((6-(5-(((benzyl(methyl)carbamoyl)oxy)methyl)-1-methyl-1H-1,2,3-triazol-4-yl)-2-(difluoromethyl)pyridin-3-yl)oxy)cyclohexane-1-carboxylic acid], the IC50 under setting [1] turned out to be 19 nM.
